# Test results from publication PMC11192711, “Automated radiosynthesis and preclinical evaluation of two new PSMA-617 derivatives radiolabelled via [^18F]AlF^2+ method” (EJNMMI Radiopharmacy and Chemistry, 2024).
# How the values were obtained:
# [1] = system: LNCaP tumour-bearing NSG mice; experiment: PET/CT in vivo biodistribution and tumour uptake in subcutaneous LNCaP prostate cancer xenograft model; conditions: n = 4; for Bone (SUV mean) / Brain (SUV mean) / Colon (SUV mean) / Gall bladder (SUV mean) / Heart (SUV mean) / Kidney (SUV mean) / Liver (SUV mean) / Lung (SUV mean) / Muscle (SUV mean) / Salivary gland (SUV mean) / Small instestine (SUV mean): LNCaP NSG male mice, i.v., PET/CT; for ratio between tumour and muscle (tumour SUV max/muscle SUV mean) / uptake in the tumour expressed as SUV max: LNCaP tumour, NSG mice
# Method: The uptake of [^18F]F-PSMA-1007 and [^18F]F-PSMA-617-NODA ([^18F]1) was compared in vivo in a xenograft model of human prostate cancer obtained using LNCaP cells which are PSMA positive, as confirmed by real time PCR-analysis (Additional file 1: S69A). LNCaP tumour-bearing NSG mice were injected i.v. with either [^18F]F-PSMA-1007 or [^18F]F-PSMA-617-NODA (~ 3.8 MBq/mouse, ~ 20 pmol for [^18F]F-PSMA-1007 and ~ 50 pmol [^18F]1). Radiotracer uptake was assessed after 10, 60 and 120 min post injection by whole-body PET/CT acquisitions.
# Total body biodistribution of [^18F]F-PSMA-1007, [^18F]F-PSMA-617-NODA and [^18F]F-PSMA-617-RESCA was evaluated in vivo using imaging PET/CT. [^18F]F-PSMA-617-NODA uptake was compared to that of the [^18F]F-PSMA-1007 in a PSMA positive prostate tumour xenograft model (LNCaP). [^18F]F-PSMA-617-NODA and [^18F]F-PSMA-617-RESCA uptake were also evaluated using an orthotopic glioma model (Gli36ΔEGFR).
# Animal experiments were carried out in compliance with institutional guidelines for the care and the use of experimental animals, which have been authorized by the Italian Ministry of Health (n° 378/2019-PR and 817/2021-PR). The animals were housed at constant temperature (23 °C) and relative humidity (40%) under a regular light/dark cycle with food and water available ad libitum. Seven to eight weeks old male NSG mice (Charles River Laboratories Italia s.r.l., Italy) were subcutaneously inoculated in the right flank with 5 × 10^6 of PSMA‐positive human prostate cancer cells (LNCaP) suspended in matrigel (1: 1, total volume 200 ul). The growth tumour was monitored periodically with calliper and tumour volume was calculated using the following formula: […]
# When the tumour volume was about 230.8 ± 60.3 mm^3 (approximately 15 days after tumour cells inoculation), 4 animals performed an in vivo biodistribution of [^18F]F-PSMA-1007 and [^18F]F-PSMA-617-NODA, on successive but non-consecutive days, using PET/CT.
# Mice were injected into a tail vein with 3.8 ± 0.1 MBq of [^18F]F-PSMA-1007, 4.0 ± 0.2 MBq of [^18F]F-PSMA-617-NODA ([^18F]1) and 3.8 ± 0.1 MBq of [^18F]F-PSMA-617-RESCA ([^18F]2), respectively.
# Total body PET/CT acquisitions were performed using PET/CT tomographs dedicated to small animals, X-ß-CUBE (Molecubes, Gent, Belgium) after 10, 60 and 120 min from tracer injection. Each acquisition lasted 30 min and mice were maintained anesthetized (4% isoflurane in induction and 2% in maintenance in air) during acquisition.
# Image quantification analysis was performed with PMOD 4.105 software (Zurich, Switzerland). Volumes of interest (VOIs) were drawn on peripheral organs (tumour, thoracic muscle, heart, liver, kidney, salivary glands, lung, small intestine, colon, bone, gall bladder) and on the healthy brain using CT images. For the glioma model, PET/CT images were co-registered to MRI images and two different VOIs were defined: (1) a control VOI covering the healthy left striatum (volume 4 mm^3) was drawn on the axial MR images, adjusted on the other imaging planes and then copied on the PET images of each mouse; (2) a second glioma-covering VOI was drawn in the tumour-affected brain hemisphere and centered on mice lesions.
# For quantification, Standardized Uptake Value (SUV) was calculated according to the formula:
# SUV = organ concentration activity [MBq/g]/(injected activity [MBq]/animal weight [g]).
# The data were expressed as standardized-uptake-values (SUVmean and SUVmax) and as tumour-to-muscle (T/M) and tumour-to-blood (T/B) ratio in PCa model and as tumour-to-contralateral (T/Cl) ratio in glioma model.
# [2] = Stability in final solution (analytical HPLC and radio-TLC); format: physicochemical; conditions: up to four hours after end of radiosynthesis, room temperature, HPLC and radio-TLC
# Method: Chemical and radiochemical stability in the final solution were tested by analytical HPLC and radio-TLC (Additional file 1: S37–S41); samples of the purified product were analyzed up to four hours after the end of radiosynthesis, at time intervals of two hours and storing the vial at room temperature.
# Stability in solution of [^18F]F-PSMA-617-NODA ([^18F]1) and [^18F]F-PSMA-617-RESCA ([^18F]2) were evaluated injecting in RP-HPLC (for experimental conditions, see sections “(((S)-5-((S)-2-((1R,4S)-4-((4-(4,7-bis(carboxymethyl)-1,4,7-triazonan-1-yl)butanamido)methyl)cyclohexane-1-carboxamido)-3-(naphthalen-2-yl)propanamido)-1-carboxypentyl)carbamoyl)-L-glutamic acid [^18F] aluminium fluoride ([^18F] 1)” and “(((S)-5-((S)-2-((1R,4S)-4-((2-(4-((((1R,2R)-2-(bis(carboxymethyl)amino)cyclohexyl)(carboxymethyl)amino)methyl)phenyl)acetamido)methyl)cyclohexane-1-carboxamido)-3-(naphthalen-2-yl)propanamido)-1-carboxypentyl)carbamoyl)-L-glutamic acid [18F] aluminium fluoride ([18F] 2)”) samples (20 µl) of respective radiopharmaceutical solutions at t = 0 (EOS), after 2 h and after 4 h. Moreover, ≈ 7.5 kBq of [^18F]1 or [^18F]2 solution were deposited on TLC sheet. The TLC was imaged using Cyclone® Plus Phosphor Scanner and software OptiQuant™.
smiles,measurement,setting,value
"O=C(O)CCC(NC(=O)NC(CCCCNC(=O)C(Cc1ccc2ccccc2c1)NC(=O)C1CCC(CNC(=O)CCCN2CCN(CC(=O)O)CCN(CC(=O)O)CC2)CC1)C(=O)O)C(=O)O.[18F][Al] [[^18F]F-PSMA-617-NODA, (((S)-5-((S)-2-((1R,4S)-4-((4-(4,7-bis(carboxymethyl)-1,4,7-triazonan-1-yl)butanamido)methyl)cyclohexane-1-carboxamido)-3-(naphthalen-2-yl)propanamido)-1-carboxypentyl)carbamoyl)-L-glutamic acid [^18F] aluminium fluoride]",Bone (SUV mean),[1]; 10 min p.i.,0.20 ± 0.12
same,Brain (SUV mean),[1]; 10 min p.i.,0.05 ± 0.003
same,Colon (SUV mean),[1]; 10 min p.i.,0.30 ± 0.08
same,Gall bladder (SUV mean),[1]; 10 min p.i.,0.27 ± 0.05
same,Heart (SUV mean),[1]; 10 min p.i.,0.30 ± 0.03
same,Kidney (SUV mean),[1]; 10 min p.i.,8.50 ± 1.40
same,Liver (SUV mean),[1]; 10 min p.i.,0.22 ± 0.02
same,Lung (SUV mean),[1]; 10 min p.i.,0.31 ± 0.04
same,Muscle (SUV mean),[1]; 10 min p.i.,0.15 ± 0.05
same,Salivary gland (SUV mean),[1]; 10 min p.i.,0.49 ± 0.05
same,Small instestine (SUV mean),[1]; 10 min p.i.,0.23 ± 0.05
same,Bone (SUV mean),[1]; 60 min p.i.,0.23 ± 0.11
same,Brain (SUV mean),[1]; 60 min p.i.,0.03 ± 0.01
same,Colon (SUV mean),[1]; 60 min p.i.,0.17 ± 0.02
same,Gall bladder (SUV mean),[1]; 60 min p.i.,0.14 ± 0.07
same,Heart (SUV mean),[1]; 60 min p.i.,0.09 ± 0.02
same,Kidney (SUV mean),[1]; 60 min p.i.,6.39 ± 2.14
same,Liver (SUV mean),[1]; 60 min p.i.,0.10 ± 0.02
same,Lung (SUV mean),[1]; 60 min p.i.,0.14 ± 0.01
same,Muscle (SUV mean),[1]; 60 min p.i.,0.04 ± 0.01
same,Salivary gland (SUV mean),[1]; 60 min p.i.,0.18 ± 0.08
same,Small instestine (SUV mean),[1]; 60 min p.i.,0.16 ± 0.05
same,Bone (SUV mean),[1]; 120 min p.i.,0.25 ± 0.12
same,Brain (SUV mean),[1]; 120 min p.i.,0.02 ± 0.01
same,Colon (SUV mean),[1]; 120 min p.i.,0.13 ± 0.06
same,Gall bladder (SUV mean),[1]; 120 min p.i.,0.03 ± 0.02
same,Heart (SUV mean),[1]; 120 min p.i.,0.03 ± 0.01
same,Kidney (SUV mean),[1]; 120 min p.i.,2.43 ± 1.24
same,Liver (SUV mean),[1]; 120 min p.i.,0.04 ± 0.01
same,Lung (SUV mean),[1]; 120 min p.i.,0.04 ± 0.01
same,Muscle (SUV mean),[1]; 120 min p.i.,0.02 ± 0.01
same,Salivary gland (SUV mean),[1]; 120 min p.i.,0.04 ± 0.02
same,Small instestine (SUV mean),[1]; 120 min p.i.,0.06 ± 0.03
same,ratio between tumour and muscle (tumour SUV max/muscle SUV mean),[1]; 60 min p.i.,30.29 ± 10.46
same,uptake in the tumour expressed as SUV max,[1]; 60 min p.i.,1.11 ± 0.24
same,ratio between tumour and muscle (tumour SUV max/muscle SUV mean),[1]; 120 min p.i.,83.53 ± 48.71
same,uptake in the tumour expressed as SUV max,[1]; 120 min p.i.,0.94 ± 0.12
same,Chemical and radiochemical stability in the final solution,[2]; listed as [^18F]1,stable and no loss of radioactivity due to radiolytic degradation and aluminum fluoride release were detected
same,Chemical and radiochemical stability in the final solution,[2]; listed as [^18F]PSMA-617-NODA,"neither the release of [^18F]AlF^2+ in solution, nor the formation of other degradation by-products was noticed"
